Patent US11472778B2, “Hepatitis C virus NS3/4A protease inhibitors” (priority 2017, dated 2022)
Read-outs that look alike come from different tables or passages of the source.

Experiments:
[1] = rcm bond, 15-membered ring, Zhan 1b, 1,2-DCE
[2] = biological target: T1, GT1a D168A NS3/4A protease (UniProt P27958, C1185S/D1194A, species not given); assay type: biochemical, Hepatitis C virus; settings: read-out: Ki (nM) GT1a D168A NS3/4A Protease
T1 construct: Ki (nM) GT1a D168A NS3/4A Protease
In short: (§1)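 Enzyme (GT1a wild type or D168A mutant, 2 nM) was preincubated with inhibitor dilutions for 1 h at room temperature in pH 7.5 Tris buffer with glycerol, DTT, LDAO and 4% DMSO.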

[3] = biological target: T2, wild-type GT1a NS3/4A protease (UniProt P27958, C1185S, species not given); assay type: biochemical, Hepatitis C virus; settings: read-out: Ki (nM) GT1a WT NS3/4A Protease
T2 construct: Ki (nM) GT1a WT NS3/4A Protease
In short: as §1

[4] = test system: HCV replicon D168A variant in Huh7 cells; assay: microbe, parasite or virus in culture; assay type: cell-based, Hepatitis C virus; settings: for EC50: Hepatitis C virus
In short: (§2)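 Protease variants were introduced by site-directed mutagenesis into a genotype 1b Con1 luciferase replicon containing genotype 1a H77 NS3. Each replicon RNA was electroporated into Huh7 cells. Inhibitor was titrated upward. Luminescence was measured after 96 h.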

[5] = test system: HCV replicon R155K variant in Huh7 cells; assay: microbe, parasite or virus in culture; assay type: cell-based, Hepatitis C virus; settings: for EC50: Hepatitis C virus
In short: as §2

[6] = test system: HCV replicon A156T variant in Huh7 cells; assay: microbe, parasite or virus in culture; assay type: cell-based, Hepatitis C virus; settings: for EC50: Hepatitis C virus
In short: as §2

[7] = test system: wild-type HCV replicon in Huh7 cells; assay: Cell-based drug susceptibility (replicon) assay, wild-type; settings: Hepatitis C virus, read-out: Replicon EC50 (nM) WT
In short: as §2

[8] = test system: HCV replicon D168V variant in Huh7 cells; assay: microbe, parasite or virus in culture; assay type: cell-based, Hepatitis C virus; settings: for EC50: Hepatitis C virus
In short: as §2

[9] = biological target: T3, GT1a D168A NS3/4A protease (UniProt P27958, D1194A, species not given); assay type: biochemical, Hepatitis C virus
T3 construct: rows headed: Ki (nM) D168A; Ki D168A; other: D168A variant
In short: as §1

[10] = biological target: GT1a D168A NS3/4A protease; assay type: biochemical, Hepatitis C virus; settings: for Ki (Fold change) GT1a D168A NS3/4A Protease: Table 3, Ki D168A relative to GT1a WT
In short: as §1

[11] = biological target: T4, wild-type GT1a NS3/4A protease (UniProt P27958); assay type: biochemical, Hepatitis C virus
T4 construct: Ki WT; other: wild-type HCV NS3/4A protease
In short: as §1

[12] = biological target: GT1a R155K NS3/4A protease; assay type: biochemical, Hepatitis C virus; settings: fold change in Ki, R155K relative to WT
In short: (§3)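 2 nM NS3/4A protease (GT1a, R155K and D168A constructs) pre-incubated 1 h at room temperature with increasing inhibitor concentrations in 50 mM Tris pH 7.5, 5% glycerol, 10 mM DTT, 0.6 mM LDAO, 4% DMSO. Three independent data sets per inhibitor and construct; ΔG of binding derived from Ki as ΔG=RTlnKi.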

[13] = biological target: GT1a R155K NS3/4A protease (UniProt P27958, R1181K, species not given); assay type: biochemical, Hepatitis C virus
In short: as §3

[14] = Huh-7, 96 h, read-out: Replicon EC50 (nM) D168A, Table 2, Huh7 cells, luciferase 96 h
[15] = Huh-7, read-out: Replicon EC50 (nM) D168A, Table 4
[16] = Table 4, relative to WT replicon
[17] = Huh-7, 96 h, read-out: Replicon EC50 (nM) R155K, Table 2, Huh7 cells, luciferase 96 h
[18] = Huh-7, read-out: Replicon EC50 (nM) R155K, Table 4
[19] = Huh-7, 96 h, read-out: Replicon EC50 (nM) A156T, Table 2, Huh7 cells, luciferase 96 h
[20] = Huh-7, read-out: Replicon EC50 (nM) A156T, Table 4
[21] = Huh-7, 96 h, Table 2, Huh7 cells, luciferase 96 h
[22] = Huh-7, 96 h, read-out: Replicon EC50 (nM) D168V, Table 2, Huh7 cells, luciferase 96 h
[23] = Huh-7, read-out: Replicon EC50 (nM) D168V, Table 4

Compound	Ki ([2]; Table 1) [nM]	Ki ([2]; Table 3) [nM]	Ki ([3]; Table 1) [nM]	Ki ([3]; Table 3) [nM]	EC50 [4, 14] [nM]	EC50 [4, 15] [nM]	Replicon EC50 (Fold change) D168A [4, 16]	EC50 [5, 17] [nM]	EC50 [5, 18] [nM]	Replicon EC50 (Fold change) R155K [5, 16]	EC50 [6, 19] [nM]	EC50 [6, 20] [nM]	Replicon EC50 (Fold change) A156T [6, 16]	EC50 [7, 21] [nM]	EC50 ([7]; Huh-7, Table 4) [nM]	EC50 [8, 22] [nM]	EC50 [8, 23] [nM]	Replicon EC50 (Fold change) D168V [8, 16]	Ki (Fold change) GT1a D168A NS3/4A Protease [10]	further results
tert-Butyl 42R,6S,13aS,14aR,16aS,Z)-14a-((cyclopropylsulfonyl)carbamoyl)-2-((3-isopropyl-7-methoxyquinoxalin-2-yl)oxy)-5,16-dioxo-1,2,3,5,6,7,8,9,10,11,13a,14,14a,15,16,16a-hexadecahydrocyclopropa[e]pyrrolo[1,2-a][1,4]diazacyclopentadecin-6-yl)carbamate	–	–	–	–	–	–	–	–	–	–	–	–	–	–	–	–	–	–	–	ring closure, isolated yield ([1]; 6.6 mM, 70.0 °C): 58%
CC(C)(C)OC(=O)N[C@H]1CCCCC/C=C\[C@@H]2C[C@@]2(C(=O)NS(=O)(=O)C2CC2)NC(=O)[C@@H]2C[C@@H](Oc3nc4ccccc4nc3-c3cccs3)CN2C1=O [Compound 18f, tert-Butyl ((2R,6S,13aS,14aR,16aS,Z)-14a-((cyclopropylsulfonyl)carbamoyl)-5,16-dioxo-2-((3-(thiophen-2-yl)quinoxalin-2-yl)oxy)-1,2,3,5,6,7,8,9,10,11,13a,14,14a,15,16,16a-hexadecahydrocyclopropa[e]pyrrolo[1,2-a][1,4]diazacyclopentadecin-6-yl)carbamate, reference compound]	1820	1820 ± 347	1.03	1.03	111	111	(113) fold	21.7	21.7	(22) fold	256	256	(261) fold	0.98	0.98	193	193	(197) fold	–	ring closure, isolated yield ([1]; from C=CCCCCC[C@H](NC(=O)OC(C)(C)C)C(=O)N1C[C@H](Oc2nc3ccccc3nc2-c2cccs2)C[C@H]1C(=O)N[C@]1(C(=O)NS(=O)(=O)C2CC2)C[C@H]1C=C, 3.5 mM, 70.0 °C): 61%; ring closure, isolated yield ([1]; 3.5 mM): 61%
C=C[C@@H]1C[C@]1(NC(=O)[C@@H]1C[C@@H](Oc2nc3cc(OC)ccc3nc2CC)CN1C(=O)[C@@H](NC(=O)OC(C)(C)C)C(C)(C)C)C(=O)NS(=O)(=O)C1CC1 [Compound 3, tert-Butyl ((S)-1-((2S,4R)-2-(((1R,2S)-1-((cyclopropylsulfonyl)carbamoyl)-2-vinylcyclopropyl)carbamoyl)-4-((3-ethyl-7-methoxyquinoxalin-2-yl)oxy)pyrrolidin-1-yl)-3,3-dimethyl-1-oxobutan-2-yl)carbamate]	–	–	–	–	–	–	–	–	–	–	–	–	–	–	–	–	–	–	–	Ki ([9]; read-out: Ki (nM) D168A, Table 8, linear inhibitors): 642 ± 101 nM; Ki ([9]; read-out: Ki D168A, D168A variant): 642 ± 101 nM; Ki D168A (fold change) ([10]; fold change in Ki, D168A relative to WT): 34; Ki ([11]; read-out: Ki (nM) WT, Table 8, linear inhibitors): 19 nM; Ki ([11]; read-out: Ki WT, wild-type HCV NS3/4A protease): 19 ± 2.7 nM; Ki R155K (fold change) [12]: 0.9; Ki ([13]; read-out: Ki (nM) R155K, Table 8, linear inhibitors): 17 ± 2.3 nM; Ki ([13]; read-out: Ki R155K, R155K variant): 17 ± 2.3 nM; EC50 ([4]; Huh-7, read-out: Replicon EC50 (nM) D168A, Table 9): > 500 nM; Replicon EC50 (Fold change) D168A ([4]; Table 9, relative to WT): (>21) fold; EC50 ([5]; Huh-7, read-out: Replicon EC50 (nM) R155K, Table 9): 50 nM; Replicon EC50 (Fold change) R155K ([5]; Table 9, relative to WT): (2.1) fold; EC50 ([6]; Huh-7, read-out: Replicon EC50 (nM) A156T, Table 9): 73 nM; Replicon EC50 (Fold change) A156T ([6]; Table 9, relative to WT): (3.0) fold; EC50 ([7]; Huh-7, Table 9): 24 nM; EC50 ([8]; Huh-7, read-out: Replicon EC50 (nM) D168V, Table 9): > 500 nM; Replicon EC50 (Fold change) D168V ([8]; Table 9, relative to WT): (>21) fold
COc1ccc2nc(C(C)C)c(O[C@@H]3C[C@H]4C(=O)N[C@]5(C(=O)NS(=O)(=O)C6(C)CC6)C[C@H]5/C=C\CCCCC[C@H](NC(=O)OC(C)(C)C)C(=O)N4C3)nc2c1 [Compound 19e, tert-Butyl ((2R,6S,13aS,14aR,16aS,Z)-2-((3-isopropyl-7-methoxyquinoxalin-2-yl)oxy)-14a-(((1-methylcyclopropyl)sulfonyl)carbamoyl)-5,16-dioxo-1,2,3,5,6,7,8,9,10,11,13a,14,14a,15,16,16a-hexadecahydrocyclopropa[e]pyrrolo[1,2-a][1,4]diazacyclopentadecin-6-yl)carbamate]	211	211 ± 19	0.58	0.58	11.9	11.9	(6) fold	4.14	4.14	(2) fold	21.2	21.2	(11) fold	1.86	1.86	18.1	18.1	(10) fold	(364) fold	ring closure, isolated yield ([1]; 6.6 mM): 60%
CCOC(=O)[C@@]12C[C@H]1/C=C\CCCCC[C@H](NC(=O)OC(C)(C)C)C(=O)N1C[C@H](Oc3nc4cc(OC)ccc4nc3C(F)(F)F)C[C@H]1C(=O)N2	–	–	–	–	–	–	–	–	–	–	–	–	–	–	–	–	–	–	–	ring closure, isolated yield ([1]; from C=CCCCCC[C@H](NC(=O)OC(C)(C)C)C(=O)N1C[C@H](Oc2nc3cc(OC)ccc3nc2C(F)(F)F)C[C@H]1C(=O)N[C@]1(C(=O)OCC)C[C@H]1C=C, 6.7 mM, 70.0 °C, 5.0 h): 70%
CCc1nc2ccccc2nc1O[C@@H]1C[C@H]2C(=O)N[C@]3(C(=O)NS(=O)(=O)C4CC4)C[C@H]3/C=C\CCCCC[C@H](NC(=O)OC(C)(C)C)C(=O)N2C1 [Compound 18g, tert-Butyl ((2R,6S,13aS,14aR,16aS,Z)-14a-((cyclopropylsulfonyl)carbamoyl)-2-((3-ethylquinoxalin-2-yl)oxy)-5,16-dioxo-1,2,3,5,6,7,8,9,10,11,13a,14,14a,15,16,16a-hexadecahydrocyclopropa[e]pyrrolo[1,2-a][1,4]diazacyclopentadecin-6-yl)carbamate]	190	190 ± 13	7.18	7.18	8.55	8.55	(19) fold	1.81	1.81	(4) fold	10.6	10.6	(23) fold	0.46	0.46	14	14	(30) fold	(26) fold	ring closure, isolated yield ([1]; 6.9 mM): 60%
